In ChEMBL document CHEMBL1133175, “QSAR analysis of Delta(8)-THC analogues: relationship of side-chain conformation to cannabinoid receptor affinity and pharmacological potency” (J Med Chem, 2000) one finds Kd data, which are given here for 35 compounds.

The term Kd denotes the free concentration of one partner at which half of the binding sites on the other are occupied at equilibrium, for simple one-to-one binding.

Structures are written as SMILES. A value given as a limit tells only on which side of the number the result lay.

T1 sequence (P21554 whole entry): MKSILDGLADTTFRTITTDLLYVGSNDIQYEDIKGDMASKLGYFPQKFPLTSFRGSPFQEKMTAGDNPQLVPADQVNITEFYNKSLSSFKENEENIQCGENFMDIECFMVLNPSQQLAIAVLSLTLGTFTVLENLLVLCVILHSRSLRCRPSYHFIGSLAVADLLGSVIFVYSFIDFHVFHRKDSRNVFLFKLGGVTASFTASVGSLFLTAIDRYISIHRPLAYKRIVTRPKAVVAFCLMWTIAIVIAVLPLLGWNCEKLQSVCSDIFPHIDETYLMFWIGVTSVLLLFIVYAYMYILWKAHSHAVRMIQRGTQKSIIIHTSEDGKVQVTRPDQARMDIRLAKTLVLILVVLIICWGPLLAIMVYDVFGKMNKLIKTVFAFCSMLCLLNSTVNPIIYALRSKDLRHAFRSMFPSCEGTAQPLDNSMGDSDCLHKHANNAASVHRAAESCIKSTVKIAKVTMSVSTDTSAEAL

One assay has as its target T1, Cannabinoid receptor 1 (Homo sapiens, UniProt P21554). The assay is described as follows: Binding affinity against Cannabinoid receptor 1.
For the compound `CCCC#CCc1cc(O)c2c(c1)OC(C)(C)C1CC=C(C)CC21` (stereo not given), the Kd was 11 nM.
On the same count and under the same terms, the same measure for `COC(=O)C#CCCc1cc(O)c2c(c1)OC(C)(C)C1CC=C(C)CC21` (stereo not given): greater than 10000 nM; for `CCCCCC#CCc1cc(OC)c2c(c1)OC(C)(C)C1CC=C(C)CC21` (stereo not given): 189 nM; for `COC(=O)C#CCc1cc(O)c2c(c1)OC(C)(C)C1CC=C(C)CC21` (stereo not given): 731 nM.
The same measure, in the same setting: next, `CC1=CCC2C(C1)c1c(O)cc(C=C=CCCCC(=O)O)cc1OC2(C)C` (stereo not given): 3170 nM; `CCCC/C=C/CCc1cc(O)c2c(c1)OC(C)(C)C1CC=C(C)CC21` (stereo not given): 3.36 nM; `CCCCC#CCCc1cc(O)c2c(c1)OC(C)(C)C1CC=C(C)CC21` (stereo not given): 9 nM.
On to `C#CCCCC#Cc1cc(O)c2c(c1)OC(C)(C)C1CC=C(C)CC21` (stereo not given), for which the Kd is 460 nM.
Same read-out and setting: next, `CCCC#CCCCc1cc(O)c2c(c1)OC(C)(C)C1CC=C(C)CC21` (stereo not given): 19 nM.
Still for that read-out and setting: the same measure for `CCC/C=C/CCCc1cc(O)c2c(c1)OC(C)(C)C1CC=C(C)CC21` (stereo not given): 11 nM; for `CC1=CCC2C(C1)c1c(O)cc(CC#CCCCBr)cc1OC2(C)C` (stereo not given): 1.2 nM; for `CCCCC/C=C/c1cc(O)c2c(c1)OC(C)(C)C1CC=C(C)CC21` (stereo not given): 0.86 nM.
Same read-out and setting: next, `CC1=CCC2C(C1)c1c(O)cc(CC#CCCC#N)cc1OC2(C)C` (stereo not given): 31 nM; `C#CCCc1cc(O)c2c(c1)OC(C)(C)C1CC=C(C)CC21` (stereo not given): 367 nM; `CC1=CCC2C(C1)c1c(O)cc(C/C=C/CCCBr)cc1OC2(C)C` (stereo not given): 1.66 nM.
Consider `CC1=CCC2C(C1)c1c(O)cc(CC#CCCC[N+](=O)[O-])cc1OC2(C)C` (stereo not given), for which the affinity, expressed as Kd, was 5.34 nM.
For `CC1=CCC2C(C1)c1c(O)cc(C/C=C/CCCC#N)cc1OC2(C)C` (stereo in doubt; 29), binding was characterised by a dissociation constant (Kd) of 0.77 nM.
Same read-out and setting: the same measure for `CC1=CCC2C(C1)c1c(O)cc(C/C=C/CCCC#N)cc1OC2(C)C` (stereo in doubt; 30): 1.25 nM.
Still for that read-out and setting: the same measure for `CCCCC/C=C/Cc1cc(O)c2c(c1)OC(C)(C)C1CC=C(C)CC21` (stereo not given): 3.19 nM; for `CC1=CCC2C(C1)c1c(O)cc(C#CCCCC#N)cc1OC2(C)C` (stereo not given): 104 nM.
Still for that read-out and setting: next, `CC1=CCC2C(C1)c1c(O)cc(CC#CCBr)cc1OC2(C)C` (stereo not given): 143 nM; `CC1=CCC2C(C1)c1c(O)cccc1OC2(C)C` (stereo not given): 45 nM.
In turn, `CCCCCCC#CCc1cc(O)c2c(c1)OC(C)(C)C1CC=C(C)CC21` (stereo not given) returned a Kd of 3.7 nM.

In another assay the target is T1, Cannabinoid receptor 1. Kind of assay: Tested for binding affinity against Cannabinoid receptor 1 (CB1).
`CCCCCC#Cc1cc(O)c2c(c1)OC(C)(C)C1CC=C(C)CC21` (stereo not given) returned a Kd of 36 nM.
With `CC(=O)NCCC#CCc1cc(O)c2c(c1)OC(C)(C)C1CC=C(C)CC21` (stereo not given), the affinity, expressed as Kd, was 307 nM.
On the same count and under the same terms, the same measure for `CC1=CCC2C(C1)c1c(O)cc(C/C=C/CCCF)cc1OC2(C)C` (stereo not given): 20.9 nM; for `CC1=CCC2C(C1)c1c(O)cc(C/C=C/CCCO)cc1OC2(C)C` (stereo not given): 53.7 nM.
`CCCCCCC(C)(C)c1cc(O)c2c(c1)OC(C)(C)C1CC=C(C)CC21` (stereo not given) showed a Kd of 0.77 nM.
Still for that read-out and setting: next, `CC1=CCC2C(C1)c1c(O)cc(CC#CCCO)cc1OC2(C)C` (stereo not given): 448 nM.
In turn, `CC1=CCC2C(C1)c1c(O)cc(CC#CC(C)Br)cc1OC2(C)C` (stereo not given) yielded a Kd of 25 nM.
With `COCCC/C=C/Cc1cc(O)c2c(c1)OC(C)(C)C1CC=C(C)CC21` (stereo not given), binding was put at a Kd of 11.5 nM. Compared with the last compound, the Kd is about 2.2-fold lower.
Take `CC1=CCC2C(C1)c1c(O)cc(C/C=C/CCCC[N+](=O)[O-])cc1OC2(C)C` (stereo not given): binding was put at a Kd of 3.56 nM.
Same read-out and setting: next, `CC(=O)NCCC/C=C/Cc1cc(O)c2c(c1)OC(C)(C)C1CC=C(C)CC21` (stereo not given): 16.7 nM.

The next assay deals with T1, Cannabinoid receptor 1. Kind of assay: Tested for binding affinity against Cannabinoid receptor 1 (CB1).
In turn, `C#CCCCC#CCc1cc(O)c2c(c1)OC(C)(C)C1CC=C(C)CC21` (stereo not given) yielded a Kd of 4.7 nM.
Compound `CCCCCC#CCc1cc(O)c2c(c1)OC(C)(C)C1CC=C(C)CC21` (stereo not given) showed a Kd of 4.9 nM.
